These results are taken from US12667619B2, “Integrin targeting ligands and uses thereof” (Arrowhead Pharmaceuticals, Inc., priority 2018, dated 2026).

One assay concerns the target αvβ3 integrin (Homo sapiens, UniProt P05106+P06756). Briefly: IC50 binding activity, αvβ3 integrin. The note with it: read-out: IC50 ανβ3. The text has this: (§1) As reported in the following Table 1, IC50 binding data was obtained for the integrin targeting ligands of Structures 1c, 2c, and 3c, as w ell as an RGD-mimetic peptide:
(§2) Moreover, while the RGD-mimetic ligand is shown to have binding activity, the integrin targeting ligands of the present disclosure have increased stability, both with respect to serum stability in vim and chemical stability ex vim, compared to such peptide-based RGD-mimetic ligands.

The target of another assay is αvβ5 integrin (Homo sapiens, UniProt P06756+P18084). Kind of assay: IC50 binding activity, αvβ5 integrin. The conditions noted are these: read-out: IC50 ανβ5.
Excerpt: as §1, §2

For the next assay, the target named is ανβ6 (Homo sapiens, UniProt P06756+P18564). Briefly: IC50 binding activity, αvβ6 integrin. The text has this:
As reported in the following Table 1, IC50 binding data was obtained for the integrin targeting ligands of Structures 1c, 2c, and 3c, as w ell as an RGD-mimetic peptide: […]

Chain of αvβ3 integrin (P06756 31-1048): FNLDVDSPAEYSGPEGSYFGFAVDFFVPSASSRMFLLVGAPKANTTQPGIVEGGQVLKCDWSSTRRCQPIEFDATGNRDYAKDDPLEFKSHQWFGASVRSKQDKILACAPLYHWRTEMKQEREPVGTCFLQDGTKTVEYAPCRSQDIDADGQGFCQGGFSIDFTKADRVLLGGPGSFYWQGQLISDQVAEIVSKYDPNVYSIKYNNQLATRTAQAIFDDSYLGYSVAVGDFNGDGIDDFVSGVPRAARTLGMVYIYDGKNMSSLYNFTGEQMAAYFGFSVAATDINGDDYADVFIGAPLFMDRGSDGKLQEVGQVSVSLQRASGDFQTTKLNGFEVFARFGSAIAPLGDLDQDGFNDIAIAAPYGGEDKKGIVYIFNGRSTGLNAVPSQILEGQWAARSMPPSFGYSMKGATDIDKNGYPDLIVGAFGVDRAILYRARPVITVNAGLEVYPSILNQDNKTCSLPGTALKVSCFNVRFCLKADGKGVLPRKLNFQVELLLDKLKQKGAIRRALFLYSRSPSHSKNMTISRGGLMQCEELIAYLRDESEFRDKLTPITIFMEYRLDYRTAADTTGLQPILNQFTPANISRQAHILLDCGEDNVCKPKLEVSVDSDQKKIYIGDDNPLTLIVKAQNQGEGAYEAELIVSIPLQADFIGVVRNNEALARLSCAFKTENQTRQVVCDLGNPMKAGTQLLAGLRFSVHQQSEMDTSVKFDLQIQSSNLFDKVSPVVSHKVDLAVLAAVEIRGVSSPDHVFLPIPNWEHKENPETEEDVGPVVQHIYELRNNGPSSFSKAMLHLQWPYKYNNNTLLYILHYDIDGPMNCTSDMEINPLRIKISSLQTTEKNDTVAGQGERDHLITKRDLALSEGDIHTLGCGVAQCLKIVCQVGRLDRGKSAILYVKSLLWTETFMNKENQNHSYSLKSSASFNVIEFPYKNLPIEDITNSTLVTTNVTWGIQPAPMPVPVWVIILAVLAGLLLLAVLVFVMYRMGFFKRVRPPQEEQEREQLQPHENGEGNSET
Chain of αvβ3 integrin (P05106 27-788): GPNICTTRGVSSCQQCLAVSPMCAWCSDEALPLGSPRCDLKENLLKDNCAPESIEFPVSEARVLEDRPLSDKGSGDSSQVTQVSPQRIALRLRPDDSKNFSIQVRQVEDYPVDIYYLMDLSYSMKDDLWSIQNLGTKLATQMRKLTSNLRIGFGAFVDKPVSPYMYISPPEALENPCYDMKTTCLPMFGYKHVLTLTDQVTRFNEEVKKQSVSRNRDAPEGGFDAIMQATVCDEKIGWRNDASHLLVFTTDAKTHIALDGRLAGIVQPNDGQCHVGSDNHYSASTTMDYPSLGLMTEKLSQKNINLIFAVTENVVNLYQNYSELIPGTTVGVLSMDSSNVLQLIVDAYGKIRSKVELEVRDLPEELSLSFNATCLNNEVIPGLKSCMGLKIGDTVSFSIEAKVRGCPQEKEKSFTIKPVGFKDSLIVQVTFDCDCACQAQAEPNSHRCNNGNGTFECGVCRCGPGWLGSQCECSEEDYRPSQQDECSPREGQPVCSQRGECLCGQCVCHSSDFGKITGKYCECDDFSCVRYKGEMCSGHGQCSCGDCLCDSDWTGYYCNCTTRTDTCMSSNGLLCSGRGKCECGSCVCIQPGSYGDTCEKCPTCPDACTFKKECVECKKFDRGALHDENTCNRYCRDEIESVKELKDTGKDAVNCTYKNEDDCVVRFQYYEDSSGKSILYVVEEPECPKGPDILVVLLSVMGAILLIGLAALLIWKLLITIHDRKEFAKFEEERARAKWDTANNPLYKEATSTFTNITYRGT
Chain of αvβ5 integrin (P06756 31-1048): as the sequence (P06756 31-1048) above
Chain of αvβ5 integrin (P18084 24-799): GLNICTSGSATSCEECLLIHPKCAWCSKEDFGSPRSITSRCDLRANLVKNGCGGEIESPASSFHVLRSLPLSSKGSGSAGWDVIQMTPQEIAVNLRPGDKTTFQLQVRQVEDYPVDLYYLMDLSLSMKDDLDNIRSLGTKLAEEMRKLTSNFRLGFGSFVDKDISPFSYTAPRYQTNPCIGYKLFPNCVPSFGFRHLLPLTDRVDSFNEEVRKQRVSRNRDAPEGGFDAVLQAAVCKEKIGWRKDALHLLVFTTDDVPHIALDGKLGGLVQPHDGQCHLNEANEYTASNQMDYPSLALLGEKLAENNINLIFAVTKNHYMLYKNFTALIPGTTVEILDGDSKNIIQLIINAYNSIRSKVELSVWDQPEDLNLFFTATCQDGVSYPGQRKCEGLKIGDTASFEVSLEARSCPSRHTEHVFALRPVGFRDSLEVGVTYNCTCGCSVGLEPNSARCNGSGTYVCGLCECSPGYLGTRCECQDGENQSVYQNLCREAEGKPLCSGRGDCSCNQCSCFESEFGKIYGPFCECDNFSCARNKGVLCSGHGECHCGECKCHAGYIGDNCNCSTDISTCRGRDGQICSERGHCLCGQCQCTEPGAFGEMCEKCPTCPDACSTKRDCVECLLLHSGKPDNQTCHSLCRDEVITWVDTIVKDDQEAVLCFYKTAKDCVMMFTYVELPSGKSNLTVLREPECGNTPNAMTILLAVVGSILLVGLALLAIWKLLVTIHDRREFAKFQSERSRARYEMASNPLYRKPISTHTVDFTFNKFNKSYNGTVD
Chain of ανβ6 (P06756 31-1048): as the sequence (P06756 31-1048) above
Chain of ανβ6 (P18564 22-788): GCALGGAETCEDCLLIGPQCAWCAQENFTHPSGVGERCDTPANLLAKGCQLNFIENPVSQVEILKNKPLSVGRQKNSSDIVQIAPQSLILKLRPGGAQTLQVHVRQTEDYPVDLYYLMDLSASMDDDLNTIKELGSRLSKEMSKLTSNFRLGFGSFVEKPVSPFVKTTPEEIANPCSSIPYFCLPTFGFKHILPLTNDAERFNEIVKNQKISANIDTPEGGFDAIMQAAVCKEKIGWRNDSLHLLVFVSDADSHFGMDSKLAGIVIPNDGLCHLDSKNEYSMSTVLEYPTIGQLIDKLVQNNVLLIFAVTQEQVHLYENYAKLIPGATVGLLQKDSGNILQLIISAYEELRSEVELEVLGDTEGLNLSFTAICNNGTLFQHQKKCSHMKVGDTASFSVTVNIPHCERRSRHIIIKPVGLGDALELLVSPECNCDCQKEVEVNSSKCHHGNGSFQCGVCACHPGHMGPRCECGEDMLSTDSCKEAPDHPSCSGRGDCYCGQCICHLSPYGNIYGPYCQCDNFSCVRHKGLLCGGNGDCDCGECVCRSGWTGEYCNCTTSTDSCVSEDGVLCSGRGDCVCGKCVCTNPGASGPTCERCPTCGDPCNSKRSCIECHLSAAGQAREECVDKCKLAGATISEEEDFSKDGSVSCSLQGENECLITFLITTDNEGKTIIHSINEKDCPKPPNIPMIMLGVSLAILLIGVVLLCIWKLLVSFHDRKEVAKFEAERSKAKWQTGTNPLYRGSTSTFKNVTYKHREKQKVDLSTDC

Turning to `[N-]=[N+]=NCCOCCOCCOCCOCCC(=O)NCCCOc1ccc([C@H](CC(=O)O)N2CCN(CCCc3ccc4c(n3)NCCC4)C2=O)cn1` [Structure 1c, (S)-3-(6-((1-azido-15-oxo-3,6,9,12-tetraoxa-16-azanonadecan-19-yl)oxy)pyridin-3-yl)-3-(2-oxo-3-(3-(5,6,7,8-tetrahydro-1,8-naphthyridin-2-yl)propyl)imidazolidin-1-yl)propanoic acid], the IC50 (in general, the concentration that inhibits the measured activity by half) at αvβ3 integrin is 0.3 nM; at αvβ5 integrin, 0.6 nM; at ανβ6, 5.3 nM.

As to `[N-]=[N+]=NCCOCCOCCOCCOc1ccc([C@H](CC(=O)O)N2CCN(CCCc3ccc4c(n3)NCCC4)C2=O)cc1F` [Structure 2c, (S)-3-(4-(2-(2-(2-(2-azidoethoxy)ethoxy)ethoxy)ethoxy)-3-fluorophenyl)-3-(2-oxo-3-(3-(5,6,7,8-tetrahydro-1,8-naphthyridin-2-yl)propyl)imidazolidin-1-yl)propanoic acid], the IC50 at αvβ3 integrin was 0.3 nM; at αvβ5 integrin, 5.6 nM; at ανβ6, 8.9 nM.
